We go through 30 compounds from patent publication US11414424B2, “Cardiac sarcomere inhibitors” (Cytokinetics, Inc., priority 2018, dated 2022).

Where only a bound is given, the exact number is not on record here.

The assay relates to bovine cardiac myofibrils. The experiment in a line: Myofibril assay: PK/LDH-coupled steady-state ATPase activity of skinned bovine cardiac myofibrils. It counts as biochemical. To be noted: Ca2+ activating to 75% of maximal rate. Put shortly:
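Steady-state ATPase of detergent-skinned bovine left-ventricular myofibrils (1 mg/mL), PK/LDH-coupled NADH read at 340 nm, in PIPES/MgCl2 buffer pH 6.8 with 50 μM ATP, 0.6 mM EGTA and CaCl2 set for 50% or 75% activation. Inhibition of activity measured.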

`CC(C)N1CC(=O)N(Cc2ccc(Cl)cc2)C2(CN(c3ccnc(C(F)F)c3)C2)C1=O` [Compound 29, 5-(4-chlorobenzyl)-2-(2-(difluoromethyl)pyridin-4-yl)-8-isopropyl-2,5,8-triazaspiro[3.5]nonane-6,9-dione]: the “CDMF75 IC15” value was 5.6 µM. Then `CC(C)CN1CC(=O)N(Cc2ccc(C(F)(F)F)cc2)C2(CN(c3ccc(C#N)cn3)C2)C1=O` [Compound 59, 6-(8-isobutyl-6,9-dioxo-5-(4-(trifluoromethyl)benzyl)-2,5,8-triazaspiro[3.5]-nonan-2-yl)nicotinonitrile], with 23.4 µM. Then `CC(=O)N1CC2(C1)C(=O)N(c1ncc(Cl)cc1F)CC(=O)N2Cc1ccc(C(F)(F)F)cc1` [Compound 528, 2-acetyl-8-(5-chloro-3-fluoropyridin-2-yl)-5-(4-(trifluoromethyl)benzyl)-2,5,8-triazaspiro[3.5]nonane-6,9-dione], with 2.9 µM. As to `O=C1CN(c2ncc(Cl)cc2F)C(=O)C2(COC2)N1Cc1ccc(C(F)F)cc1` [Compound 768, 8-(5-chloro-3-fluoropyridin-2-yl)-5-(4-(difluoromethyl)-benzyl)-2-oxa-5,8-diazaspiro[3.5]nonane-6,9-dione], the “CDMF75 IC15” value came to 4.3 µM.

Take `C[C@@H](c1ccc(Cl)cc1)N1C(=O)CN(c2ncc(Cl)cc2F)C(=O)C12CN(C(=O)NC1CC1)C2` [Compound 559, (S)-8-(5-chloro-3-fluoro-pyridin-2-yl)-5-(1-(4-chlorophenyl)ethyl)-N-cyclopropyl-6,9-dioxo-2,5,8-triazaspiro[3.5]-nonane-2-carboxamide]: the “CDMF75 IC15” value stood at 25.1 µM. The result for `CNC(=O)N1CC2(C1)C(=O)N(c1ccc(C(F)(F)F)cc1)CC(=O)N2Cc1ccc(C(F)(F)F)cc1` [Compound 151, N-methyl-6,9-dioxo-5-(4-(trifluoromethyl)benzyl)-8-(4-(trifluoromethyl)phenyl)-2,5,8-triazaspiro[3.5]nonane-2-carboxamide] reads 12.2 µM. Then `CC(C)N1CC(=O)N(Cc2ccc(Cl)cc2)C2(CN(c3cnn(C)c3)C2)C1=O` [Compound 21, 5-(4-chlorobenzyl)-8-isopropyl-2-(1-methyl-1H-pyrazol-4-yl)-2,5,8-triazaspiro[3.5]nonane-6,9-dione], with 2.6 µM; and `COc1cnc(N2CC(=O)N(Cc3ccc(Cl)cc3)C(C3COC3)C2=O)c(F)c1` (stereo not drawn) [Compound 769, 4-(4-chlorobenzyl)-1-(3-fluoro-5-methoxypyridin-2-yl)-3-(oxetan-3-yl)-piperazine-2,5-dione], with 7.9 µM; and `Cc1cc(Cl)cnc1N1CC(=O)N(Cc2ccc(Cl)c(F)c2)C(C2COC2)C1=O` (stereo not drawn) [Compound 730, 4-(4-chloro-3-fluoro-benzyl)-1-(5-chloro-3-methylpyridin-2-yl)-3-(oxetan-3-yl)-piperazine-2,5-dione], with 3.4 µM. The result for `COCCNC(=O)N1CCC2(C1)C(=O)N(C(C)C)CC(=O)N2Cc1ccc(Cl)cc1` (stereo not drawn) [Compound 387, 6-(4-chlorobenzyl)-9-isopropyl-N-(2-methoxy-ethyl)-7,10-dioxo-2,6,9-triazaspiro[4.5]decane-2-carboxamide] reads greater than 39 µM; that for `CC(C)N1CC(=O)N(Cc2ccc(Cl)cc2)C2(CCN(c3ccncn3)C2)C1=O` (stereo not drawn) [Compound 71, 6-(4-chlorobenzyl)-9-isopropyl-2-(pyrimidin-4-yl)-2,6,9-triazaspiro-[4.5]decane-7,10-dione], 4.8 µM.

`CC(C)N1CC(=O)N(Cc2ccc(Cl)cc2)C2(CC(=O)N(c3ccccc3)C2)C1=O` (stereo not drawn) [Compound 331, 6-(4-chlorobenzyl)-9-isopropyl-2-phenyl-2,6,9-triazaspiro[4.5]decane-3,7,10-trione]: the “CDMF75 IC15” value stood at 30.9 µM.

Consider `CC(C)N1CC(=O)N([C@@H](C)c2ccc(C(F)(F)F)cc2)C2(CN(c3ccccc3)C2)C1=O` [Compound 142, (S)-8-isopropyl-2-phenyl-5-(1-(4-(trifluoromethyl)phenyl)ethyl)-2,5,8-triazaspiro[3.5]nonane-6,9-dione], for which the “CDMF75 IC15” value was found to be 0.8 µM. Then `N#Cc1ccc(N2CC(=O)N(Cc3ccc(Cl)cc3)C3(CCN(C(=O)C4CCC4)C3)C2=O)c(F)c1` (stereo in doubt) [Compound 212, (S)-4-(6-(4-chlorobenzyl)-2-(cyclobutanecarbonyl)-7,10-dioxo-2,6,9-triazaspiro[4.5]decan-9-yl)-3-fluorobenzonitrile], with 0.9 µM; and `O=C1CN([C@@H]2CCOC2)C(=O)C2(CCN(c3ccccn3)C2)N1Cc1ccc(Cl)cc1` (stereo partly drawn) [Compound 93, 6-(4-chlorobenzyl)-2-(pyridin-2-yl)-9-((R)-tetrahydrofuran-3-yl)-2,6,9-triazaspiro-[4.5]decane-7,10-dione], with 19.7 µM; and `CC(C)N1CC(=O)N(Cc2ccc(Cl)cc2)C2(CCN(c3ccc(F)cn3)C2)C1=O` (stereo not drawn) [Compound 92, 6-(4-chlorobenzyl)-2-(5-fluoropyridin-2-yl)-9-isopropyl-2,6,9-triazaspiro[4.5]decane-7,10-dione], with 1.0 µM.

For `N#Cc1ccc(N2CC(=O)N(Cc3ccc(C(F)(F)F)cc3)[C@]3(C[C@H](C(=O)NC4CC4)C3)C2=O)c(F)c1` [Compound 459, (2r,4r)-8-(4-cyano-2-fluoro-phenyl)-N-cyclopropyl-6,9-dioxo-5-(4-(trifluoromethyl)benzyl)-5,8-diazaspiro[3.5]nonane-2-carboxamide], the “CDMF75 IC15” value came out at 4.5 µM. The result for `CNC(=O)N1CC(C2C(=O)N(c3ncc(Cl)cc3F)CC(=O)N2Cc2ccc(Cl)cc2)C1` (stereo not drawn) [Compound 642, 3-(4-(5-chloro-3-fluoro-pyridin-2-yl)-1-(4-chloro-benzyl)-3,6-dioxopiperin-2-yl)-N-methylazetidine-1-carboxamide] reads 10.9 µM. The result for `COC(=O)N1CC[C@]2(C1)C(=O)N(c1ccc(C#N)cc1F)CC(=O)N2Cc1ccc(C(F)(F)F)cc1` [Compound 216, methyl (S)-9-(4-cyano-2-fluorophenyl)-7,10-dioxo-6-(4-(trifluoromethyl)benzyl)-2,6,9-triazaspiro[4.5]decane-2-carboxylate] reads 0.3 µM; that for `C[C@@H](c1ccc(Cl)cc1)N1C(=O)CN(c2ncc(Cl)cc2F)C(=O)C12CN(C(=O)NC1CCOCC1)C2` [Compound 562, (S)-8-(5-chloro-3-fluoro-pyridin-2-yl)-5-(1-(4-chlorophenyl)ethyl)-6,9-dioxo-N-(tetrahydro-2H-pyran-4-yl)-2,5,8-triazaspiro[3.5]nonane-2-carboxamide], 29.0 µM; that for `Cc1cc(Cl)cnc1N1CC(=O)N(Cc2ccc(F)cc2)C2(CN(c3ccc(C#N)cn3)C2)C1=O` [Compound 887, 6-(8-(5-chloro-3-methyl-pyridin-2-yl)-5-(4-fluoro-benzyl)-6,9-dioxo-2,5,8-triazaspiro[3.5]nonan-2-yl)nicotinonitrile], 0.9 µM. With `CC1(CO)C(=O)N(c2ncc(Cl)cc2F)CC(=O)N1Cc1ccc(C(F)(F)F)cc1` (stereo not drawn) [Compound 573, 1-(5-chloro-3-fluoropyridin-2-yl)-3-(hydroxymethyl)-3-methyl-4-(4-(trifluoro-methyl)benzyl)piperazine-2,5-dione], the “CDMF75 IC15” value was found to be 6.5 µM. `CC(C)N1CC(=O)N(Cc2ccc(C(F)(F)F)cc2)C2(CCN(c3cc[nH]c(=O)c3)C2)C1=O` (stereo not drawn) [Compound 76, 9-isopropyl-2-(2-oxo-1,2-dihydropyridin-4-yl)-6-(4-(trifluoromethyl)benzyl)-2,6,9-triazaspiro[4.5]decane-7,10-dione]: the “CDMF75 IC15” value turned out to be 2.2 µM. Then `N#Cc1ccc(N2CC(=O)N(Cc3ccc(C(F)(F)F)cc3)C3(CN(C(=O)C4CCC4)C3)C2=O)c(F)c1` [Compound 180, 4-(2-(cyclobutanecarbonyl)-6,9-dioxo-5-(4-(trifluoromethyl)benzyl)-2,5,8-triazaspiro[3.5]nonan-8-yl)-3-fluorobenzonitrile], with 1.6 µM; and `CNc1ccccc1C(=O)N1CC2(C1)C(=O)N(c1ccc(C#N)cc1F)CC(=O)N2Cc1ccc(C(F)(F)F)cc1` [Compound 531, 3-fluoro-4-(2-(2-(methylamino)benzoyl)-6,9-dioxo-5-(4-(trifluoromethyl)benzyl)-2,5,8-triazaspiro[3.5]nonan-8-yl)benzonitrile], with 5.0 µM; and `Cc1cnc(N2CC3(C2)C(=O)N(C(C)C)CC(=O)N3Cc2ccc(Cl)cc2)s1` [Compound 44, 5-(4-chlorobenzyl)-8-isopropyl-2-(5-methyl-thiazol-2-yl)-2,5,8-triazaspiro[3.5]nonane-6,9-dione], with 2.4 µM. Then `N#Cc1ccc(N2CC(=O)N(Cc3ccc(Cl)cc3)C3(CCN(C(=O)C4COC4)C3)C2=O)c(F)c1` (stereo in doubt) [Compound 210, (S)-4-(6-(4-chlorobenzyl)-2-(oxetane-3-carbonyl)-7,10-dioxo-2,6,9-triazaspiro[4.5]decan-9-yl)-3-fluorobenzonitrile], with 1.7 µM. Then `CC(C)N1CC(=O)N(Cc2ccc(Cl)cc2)C2(CN(c3ccncn3)C2)C1=O` [Compound 19, 5-(4-chlorobenzyl)-8-isopropyl-2-(pyrimidin-4-yl)-2,5,8-triazaspiro-[3.5]nonane-6,9-dione], with 5.7 µM; and `CNC(=O)N1CC2(C1)C(=O)N(c1cccc(Cl)c1)CC(=O)N2Cc1ccc(C(F)(F)F)cc1` [Compound 163, 8-(3-chlorophenyl)-N-methyl-6,9-dioxo-5-(4-(trifluoromethyl)benzyl)-2,5,8-triazaspiro[3.5]-nonane-2-carboxamide], with 7.3 µM; and `Cc1ccc(CN2C(=O)CN(c3ncc(Cl)cc3F)C(=O)C23COC3)cc1` [Compound 757, 8-(5-chloro-3-fluoropyrldin-2-yl)-5-(4-methylbenzyl)-2-oxa-5,8-diazaspiro[3.5]-nonane-6,9-dione], with 7.2 µM.
